Test results taken from article doi:10.1101/525329v1, “The large loop-8 insert in Saccharomyces cerevisiae kinesin-5 Cin8 is necessary and sufficient to promote noncanonical microtubule interactions” (biorxiv, 2019).

Legend:
Test in all cases: NADH-coupled steady-state ATPase assay
Cin8-EL8 = tested on: T1, Cin8-EL8; assay type: biochemical, Saccharomyces cerevisiae; settings: low ionic strength (7.5 mM KCl, 21 mM IS), 5 μM paclitaxel-stabilized bovine microtubules, 2 mM MgCl2, pH 7.2, 298 K; kcat from microtubule-dependent fit; read-out: Km,ATP
T1 construct: monomeric Cin8 motor domain with Eg5 loop-8 insert; bacterial expression, pET32b

Eg5-KL8 = tested on: T2, Eg5-KL8; assay type: biochemical, Homo sapiens; settings: high ionic strength (75 mM KCl, 88 mM IS), 10 μM paclitaxel-stabilized bovine microtubules, 2 mM MgCl2, pH 7.2, 298 K; kcat from microtubule-dependent fit; read-out: Km,ATP
T2 construct: gene KIF11; monomeric Eg5 motor domain with Kip1 loop-8 insert; bacterial expression, pET16b

Eg5-CL8 = tested on: T3, Eg5-CL8; assay type: biochemical, Homo sapiens; settings: low ionic strength (7.5 mM KCl, 21 mM IS), 2 μM paclitaxel-stabilized bovine microtubules, 2 mM MgCl2, pH 7.2, 298 K; kcat from microtubule-dependent fit at 1 mM ATP
T3 construct: gene KIF11; monomeric Eg5 motor domain with 99-residue Cin8 loop-8 insert; bacterial expression, pET16b

## Nc1ncnc2c1ncn2[C@@H]1O[C@H](COP(=O)(O)OP(=O)(O)OP(=O)(O)O)[C@@H](O)[C@H]1O [ATP]
Cin8-EL8
  Km: 39 ± 7 µM
Eg5-KL8
  Km: 16 ± 4 µM
Eg5-CL8
  Km: 40 ± 11 µM
